For six compounds, IC50 results are on record in patent US9889115B2, “Fitness assay and associated methods” (priority 1998, dated 2018).

Holding throughout (assay type): cell-based
Experiment [1] has as its system multidrug-resistant HIV-1 clinical isolate, patient 10. Description: microbe, parasite or virus in culture. The note with it: Patient Isolate 10. Here is the method: (§1) The mutant multidrug-resistant HIV-1 strains corresponding to each patient, numbered 9-35, were genetically analyzed in terms of the nucleic acid sequences of the protease (PR) and a portion of the reverse transcriptase (RT) genes from which mutations in these enzymes were determined. The mutations in the protease and reverse transcriptase of the multidrug-resistant viruses isolated from each patient are shown below in Table 9b.

Experiment [2] has as its system multidrug-resistant HIV-1 clinical isolate, patient 11. Description: microbe, parasite or virus in culture. The settings on record: Patient Isolate 11. As to the method: as §1
The subject of experiment [3] is multidrug-resistant HIV-1 clinical isolate, patient 12. The experiment in a line: microbe, parasite or virus in culture. The settings on record: Patient Isolate 12. As to the method: as §1
The test system of experiment [4] is multidrug-resistant HIV-1 clinical isolate, patient 13. Description: microbe, parasite or virus in culture. The settings on record: Patient Isolate 13. Here is the method:
as §1

Experiment [5] deals with multidrug-resistant HIV-1 clinical isolate, patient 14. Description: microbe, parasite or virus in culture. The note with it: Patient Isolate 14. As to the method:
as §1

For experiment [6], the system named is multidrug-resistant HIV-1 clinical isolate, patient 15. The experiment in a line: microbe, parasite or virus in culture. The settings on record: Patient Isolate 15. As to the method:
as §1

Experiment [7] has as its system multidrug-resistant HIV-1 clinical isolate, patient 16. Description: microbe, parasite or virus in culture. The settings on record: Patient Isolate 16. As to the method: as §1
The test system of experiment [8] is multidrug-resistant HIV-1 clinical isolate, patient 17. Description: microbe, parasite or virus in culture. The settings on record: Patient Isolate 17. Here is the method: as §1
Experiment [9] concerns multidrug-resistant HIV-1 clinical isolate, patient 18. Description: microbe, parasite or virus in culture. The note with it: Patient Isolate 18. As to the method:
as §1

In experiment [10] the test system is multidrug-resistant HIV-1 clinical isolate, patient 19. Description: microbe, parasite or virus in culture. The settings on record: Patient Isolate 19. As to the method:
as §1

For experiment [11], the system named is multidrug-resistant HIV-1 clinical isolate, patient 20. The experiment in a line: microbe, parasite or virus in culture. The note with it: Patient Isolate 20. Here is the method:
as §1

Experiment [12] relates to multidrug-resistant HIV-1 clinical isolate, patient 21. Description: microbe, parasite or virus in culture. The note with it: Patient Isolate 21. As to the method: as §1
The test system of experiment [13] is multidrug-resistant HIV-1 clinical isolate, patient 23. The experiment in a line: microbe, parasite or virus in culture. The settings on record: Patient Isolate 23. Here is the method:
as §1

Experiment [14] relates to multidrug-resistant HIV-1 clinical isolate, patient 27. The experiment in a line: microbe, parasite or virus in culture. The settings on record: Patient Isolate 27. Here is the method: as §1
Experiment [15] deals with multidrug-resistant HIV-1 clinical isolate, patient 28. Description: microbe, parasite or virus in culture. The settings on record: Patient Isolate 28. As to the method:
as §1

The subject of experiment [16] is multidrug-resistant HIV-1 clinical isolate, patient 29. Description: microbe, parasite or virus in culture. The settings on record: Patient Isolate 29. As to the method: as §1
Experiment [17] has as its system multidrug-resistant HIV-1 clinical isolate, patient 30. Description: microbe, parasite or virus in culture. The settings on record: Patient Isolate 30. Here is the method: as §1
Experiment [18] has as its system multidrug-resistant HIV-1 clinical isolate, patient 32. The experiment in a line: microbe, parasite or virus in culture. The settings on record: Patient Isolate 32. Here is the method:
as §1

Experiment [19] has as its system multidrug-resistant HIV-1 clinical isolate, patient 33. Description: microbe, parasite or virus in culture. The note with it: Patient Isolate 33. Here is the method:
as §1

Experiment [20] concerns multidrug-resistant HIV-1 clinical isolate, patient 35. The experiment in a line: microbe, parasite or virus in culture. The note with it: Patient Isolate 35. As to the method:
as §1

Experiment [21] relates to multidrug-resistant HIV-1 clinical isolate, patient 9. Description: microbe, parasite or virus in culture. The settings on record: Patient Isolate 9. As to the method:
as §1

The subject of experiment [22] is multidrug-resistant HIV-1 clinical isolate, patient 22. Description: IC50 against multidrug-resistant clinical isolates (Table 9a). Here is the method: as §1
The next experiment relates to wild-type HIV-1 (WT). The experiment in a line: IC50 against wild-type HIV-1 (Table 9a). The settings on record: (WT).
The subject of experiment [23] is multidrug-resistant HIV-1 clinical isolate, patient 31. The experiment in a line: microbe, parasite or virus in culture. The note with it: Patient Isolate 31. Here is the method:
as §1

In experiment [24] the test system is multidrug-resistant HIV-1 clinical isolate, patient 34. Description: IC50 against multidrug-resistant clinical isolates (Table 9a). Here is the method: as §1
[25] abbreviates: Patient Isolate 22, read-out: IC50.
Where [26] appears, read: Patient Isolate 34, read-out: IC50.

Like-named read-outs stand apart in the source and are kept apart here.

By IC50 is commonly meant the concentration needed to halve the response being measured. With `Cc1cn([C@H]2C[C@H](N=[N+]=[N-])[C@@H](CO)O2)c(=O)[nH]c1=O` [AZT, 3′-azido-2′,3′-dideoxythymidine], the IC50 in experiment [1] stood at 0.02 µM; in [2], 0.11 µM; in experiment [3], 0.07 µM; in [4], 0.17 µM; in experiment [5] it was 0.64 µM; in experiment [6], 0.2 µM. Besides, the IC50 in experiment [7] is 0.97 µM; in experiment [8] it was > 1.25 µM; in [9], 0.55 µM; in experiment [10], > 1.25 µM; in experiment [11], 1.25 µM; in experiment [12], > 1.25 µM. Also, the IC50 is 0.19 µM in experiment [13]; 0.03 µM in experiment [14]; > 1.25 µM in experiment [15]; > 1.25 µM in [16]; 0.16 µM in experiment [17]; 0.32 µM in experiment [18]. Also, the IC50 in [19] was found to be 0.51 µM; in experiment [20], 0.88 µM; in experiment [21], 0.01 µM; in [22] (setting [25]), 1.02 µM; with wild-type HIV-1 (WT) it was 0.022 µM.
`Nc1ccn([C@@H]2CS[C@H](CO)O2)c(=O)n1` [Compound 3TC] yielded an IC50 with wild-type HIV-1 (WT) of 0.264 µM.
`Cc1cn([C@H]2C=C[C@@H](CO)O2)c(=O)[nH]c1=O` [Compound D4T]: the IC50 in experiment [1] was determined as 1.29 µM; in experiment [2], 3.1 µM; in [3] it was 1.23 µM; in [4], 0.78 µM; in experiment [5], 1.1 µM; in experiment [6] it was 1.1 µM. In addition, the IC50 is 1.81 µM in [7]; 4.28 µM in experiment [8]; 2.08 µM in [9]; 35.6 µM in experiment [10]; 22.5 µM in experiment [11]; 3.28 µM in experiment [12]. Besides, the IC50 in [13] came to 1 µM; in experiment [14], 4 µM; in experiment [15], 5.44 µM; in [16], 5.29 µM; in [17] it was 2.52 µM; in [23], 3.11 µM. Moreover, the IC50 turned out to be 2.41 µM in experiment [18]; 2.73 µM in experiment [19]; 18.1 µM in experiment [20]; 0.91 µM in experiment [21]; 4.68 µM in [22] (setting [25]); 7.71 µM in experiment [24] (setting [26]). In the experiment with wild-type HIV-1 (WT), this compound gave an IC50 of 1.06 µM.
Compound `Nc1ccn([C@H]2CC[C@@H](CO)O2)c(=O)n1` [DDC, 2′3′-dideoxycytidine] returned a half-inhibitory concentration (IC50) in the experiment with wild-type HIV-1 (WT) of 0.243 µM.
On to `O=c1[nH]cnc2c1ncn2[C@H]1CC[C@@H](CO)O1` [DDI, 2′3′-dideoxyinosine], for which the IC50 in experiment [1] amounted to 1.7 µM; in experiment [2] it was 2.4 µM; in experiment [3], 0.9 µM; in [4] it was 0.5 µM; in experiment [5], 2.4 µM; in [6], 2.2 µM. Further, the IC50 in [7] came to 3.5 µM; in experiment [9] it was 2.2 µM; in experiment [10] it was 36.6 µM; in experiment [11], 7.1 µM; in [12], 1 µM; in experiment [13], 1.8 µM. In addition, the concentration for half-maximal inhibition (IC50) in experiment [14] was determined as 2.6 µM; in experiment [15], 2.8 µM; in experiment [16] it was 3.8 µM; in experiment [17], 2.8 µM; in experiment [23] it was 2.6 µM; in experiment [18], 8.4 µM. Also, the IC50 in [19] came to 2 µM; in experiment [20], 17 µM; in [21] it was 0.7 µM; in experiment [22] (setting [25]), 3.7 µM; in [24] (setting [26]), 9.1 µM; in the experiment on wild-type HIV-1 (WT), 0.895 µM.
In the case of `Cc1c(O)cccc1C(=O)N[C@@H](CSc1ccccc1)[C@H](O)CN1C[C@H]2CCCC[C@H]2C[C@H]1C(=O)NC(C)(C)C` [Nel., Nelfinavir], the IC50 was > 1.25 µM in experiment [1] (Human immunodeficiency virus 1); 0.03 µM in experiment [2] (Human immunodeficiency virus 1); > 1.25 µM in experiment [3] (Human immunodeficiency virus 1); 0.47 µM in experiment [4] (Human immunodeficiency virus 1); 0.01 µM in experiment [5] (Human immunodeficiency virus 1); 0.47 µM in [6] (Human immunodeficiency virus 1). Also, the IC50 in [7] (Human immunodeficiency virus 1) was 0.86 µM; in [8] (Human immunodeficiency virus 1), 0.52 µM; in [9] (Human immunodeficiency virus 1) it was 0.6 µM; in experiment [10] (Human immunodeficiency virus 1), 0.5 µM; in experiment [11] (Human immunodeficiency virus 1) it was 0.58 µM; in experiment [12] (Human immunodeficiency virus 1), > 1.25 µM. Also, the IC50 in experiment [13] (Human immunodeficiency virus 1) is 0.28 µM; in experiment [14] (Human immunodeficiency virus 1), > 1.25 µM; in experiment [15] (Human immunodeficiency virus 1) it was > 1.25 µM; in experiment [16] (Human immunodeficiency virus 1), 0.67 µM; in experiment [17] (Human immunodeficiency virus 1) it was 0.52 µM; in [23] (Human immunodeficiency virus 1) it was 0.24 µM. Besides, the IC50 was found to be 0.22 µM in experiment [18] (Human immunodeficiency virus 1); 0.35 µM in [19] (Human immunodeficiency virus 1); 0.48 µM in [20] (Human immunodeficiency virus 1); 0.98 µM in experiment [21] (Human immunodeficiency virus 1); 0.1 µM in experiment [22] (Human immunodeficiency virus 1); 0.26 µM in experiment [24] (Human immunodeficiency virus 1). The compound also yielded an IC50 in the experiment on wild-type HIV-1 (WT) (Human immunodeficiency virus 1) of 0.031 µM.
